Reference: ChEMBL document CHEMBL4325853, “Design, synthesis and antibacterial evaluation of 2,4-disubstituted-6-thiophenyl-pyrimidines” (Eur J Med Chem, 2019)
Activity calls are given as the source filed them. No cut-off for these calls is given here.

What was measured:
[1] = target: T1, Cell division protein FtsZ (Staphylococcus aureus) (UniProt P0A031); assay: Inhibition of recombinant Staphylococcus aureus FtsZ polymerization by 90 degree light scattering-based fluorescence spectrometric analysis
T1 sequence (whole entry): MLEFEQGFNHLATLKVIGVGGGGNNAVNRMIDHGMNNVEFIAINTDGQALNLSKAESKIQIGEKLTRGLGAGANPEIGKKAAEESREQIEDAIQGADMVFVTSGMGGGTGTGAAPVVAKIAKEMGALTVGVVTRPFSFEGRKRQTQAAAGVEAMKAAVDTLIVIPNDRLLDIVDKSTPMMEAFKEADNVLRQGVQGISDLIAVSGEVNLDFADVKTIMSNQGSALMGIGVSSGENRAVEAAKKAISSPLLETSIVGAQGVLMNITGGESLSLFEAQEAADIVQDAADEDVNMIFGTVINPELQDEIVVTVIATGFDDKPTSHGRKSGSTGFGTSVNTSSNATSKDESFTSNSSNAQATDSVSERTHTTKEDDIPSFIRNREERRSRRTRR

[2] = target: T1, Cell division protein FtsZ (Staphylococcus aureus); assay: Inhibition of recombinant Staphylococcus aureus FtsZ GTPase activity assessed as reduction in inorganic phosphate formation at 2 ug/ml after 30 mins by colorimetric method relative to control
[3] = target: T1, Cell division protein FtsZ (Staphylococcus aureus); assay: Inhibition of recombinant Staphylococcus aureus FtsZ polymerization assessed as reduction in size of protein polymers at 4 ug/ml preincubated for 10 mins followed by GTP addition and measured after 15 mins by transmission electron microscopic method
[4] = target: T1, Cell division protein FtsZ (Staphylococcus aureus); assay: Inhibition of recombinant Staphylococcus aureus FtsZ GTPase activity assessed as reduction in inorganic phosphate formation at 16 ug/ml after 30 mins by colorimetric method relative to control
[5] = target: T1, Cell division protein FtsZ (Staphylococcus aureus); assay: Inhibition of recombinant Staphylococcus aureus FtsZ polymerization assessed as reduction in bundling of protein protofilaments at 4 ug/ml preincubated for 10 mins followed by GTP addition and measured after 15 mins by transmission electron microscopic method
Bacillus subtilis = assay: Induction of morphological changes in Bacillus subtilis 168 assessed as cell length at 2 ug/ml after 4.5 hrs by phase contrast microscopic analysis (reference value: 5 to 10 micrometer); format: functional, subsp. subtilis str. 168
Staphylococcus aureus [6] = assay: Ratio of MIC for Staphylococcus aureus ATCC 29213 after and before 5 serial passages; format: functional
Staphylococcus aureus [7] = assay: Ratio of MIC for Staphylococcus aureus ATCC 29213 after and before 5 to 21 serial passages; format: functional

SMILES | inhibition [1] | inhibition [2] | inhibition [3] | inhibition [4] | inhibition [5] | Activity (Bacillus subtilis) | Ratio (Staphylococcus aureus [6]) | Ratio (Staphylococcus aureus [7])
CC(C)c1ccc(CN2CCCN(CCc3cc(-c4cccs4)nc(-c4ccncc4)n3)CC2)cc1 | Dose-dependent effect | 25% | Active | 70% | Active | >20 um |  | 
COc1cccc(OC)c1C(=O)N[C@@H]1C(=O)N2[C@@H]1SC(C)(C)[C@@H]2C(=O)O [METHICILLIN] |  |  |  |  |  |  | 4 | 32
